Source: patent US20100009922A1, “HYPOTENSIVE PEPTIDES FROM SOY PROTEINS AND METHOD OF PREPARATION” (priority 2008, published 2010)
Where no end group is shown, it is not given here.

Molecular target: T1, rabbit lung angiotensin converting enzyme (Oryctolagus cuniculus, UniProt P12822)
T1 construct: rabbit lung angiotensin converting enzyme (Sigma Chemical Company, St. Louis, Mo.); purchased Sigma Chemical Company, St. Louis, Mo; host or cells: rabbit lung (tissue-derived enzyme)
T1 sequence (P12822 34-1310): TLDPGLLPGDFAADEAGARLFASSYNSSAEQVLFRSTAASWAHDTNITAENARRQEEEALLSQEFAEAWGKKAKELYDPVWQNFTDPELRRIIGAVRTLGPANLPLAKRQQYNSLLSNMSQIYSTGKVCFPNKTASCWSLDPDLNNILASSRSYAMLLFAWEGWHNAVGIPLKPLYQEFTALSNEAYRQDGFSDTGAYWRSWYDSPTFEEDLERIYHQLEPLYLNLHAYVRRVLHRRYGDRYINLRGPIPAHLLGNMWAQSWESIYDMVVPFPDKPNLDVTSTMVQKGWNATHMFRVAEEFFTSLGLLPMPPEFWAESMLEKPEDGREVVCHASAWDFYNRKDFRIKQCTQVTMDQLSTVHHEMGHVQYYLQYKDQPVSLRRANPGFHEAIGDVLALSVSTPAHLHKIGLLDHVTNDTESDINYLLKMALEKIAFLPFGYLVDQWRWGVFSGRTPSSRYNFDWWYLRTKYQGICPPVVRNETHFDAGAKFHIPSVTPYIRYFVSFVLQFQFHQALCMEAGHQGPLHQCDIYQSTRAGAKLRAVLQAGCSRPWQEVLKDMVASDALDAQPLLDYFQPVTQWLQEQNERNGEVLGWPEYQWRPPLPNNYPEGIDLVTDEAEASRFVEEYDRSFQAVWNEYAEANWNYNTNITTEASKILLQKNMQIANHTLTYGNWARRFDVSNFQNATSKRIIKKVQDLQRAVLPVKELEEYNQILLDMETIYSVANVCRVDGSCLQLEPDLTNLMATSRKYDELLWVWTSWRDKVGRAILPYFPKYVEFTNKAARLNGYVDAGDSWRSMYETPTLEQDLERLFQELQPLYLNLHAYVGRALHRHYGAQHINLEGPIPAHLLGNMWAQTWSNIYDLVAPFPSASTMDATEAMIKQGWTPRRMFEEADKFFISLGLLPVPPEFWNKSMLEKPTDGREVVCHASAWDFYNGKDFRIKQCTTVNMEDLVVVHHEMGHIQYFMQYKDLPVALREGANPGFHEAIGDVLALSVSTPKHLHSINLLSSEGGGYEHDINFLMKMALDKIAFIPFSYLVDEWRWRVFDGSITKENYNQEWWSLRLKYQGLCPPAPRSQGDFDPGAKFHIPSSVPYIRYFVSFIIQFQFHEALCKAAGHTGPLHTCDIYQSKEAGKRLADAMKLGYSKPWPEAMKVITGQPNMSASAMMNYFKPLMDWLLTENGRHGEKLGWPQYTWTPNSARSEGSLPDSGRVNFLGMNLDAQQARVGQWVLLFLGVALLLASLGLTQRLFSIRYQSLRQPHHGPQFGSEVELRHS
Assay: ACE inhibitory activity, FAPGG substrate
Format: biochemical
Conditions: synthetic peptides, 37° C., 30 minutes, read-out: ACE Inhibition (IC50)
Protocol: Angiotensin-I-converting enzyme inhibitory activity was determined using FAPGG as the substrate. A mixture containing 100 μl of 1 mM FAPGG, 20 μl of the soy peptide solution, and 80 μl of reaction solution (100 mM Tris-HCl, pH 8.3, containing 0.3 M NaCl, 10 mM ZnCl2, and 0.025 U/ml rabbit lung angiotensin converting enzyme (Sigma Chemical Company, St. Louis, Mo.)) was added to a 96-well plate. The reaction was carried out at 37° C. for 30 minutes and the absorbance of the mixture was read using a spectrophotometry set at 340 nm to determine the enzyme activity. 20 μl of distilled water was used in the place of the soy peptide solution in each assay as a negative control. The inhibitory potency (IC50) of each fraction of the soy peptides was determined from plots of percentage inhibition vs. log 10[soy peptide] (mg/L). IC50 value of Angiotensin-I-converting enzyme, defined as the amount of soy peptide that produced a 50% inhibition of ACE activity, was determined for selected fractions. Captopril was used as the positive control.

IC50 | Substance
121 ± 1.7 µM | LKPDNR [LR-6, LKPDNR]
66 ± 15.3 µM | PIPFP [PP-5, PIPFP]
46.1 ± 5.2 µM | PVNKP [PP-5-1, PVNKP]
7.2 ± 1.7 µM | IPRPRPRP [IP-8, IPRPRPRP]
